The source of these data is patent publication US11612652B2, “Lipids as synthetic vectors to enhance antigen processing and presentation ex-vivo in dendritic cell therapy” (PDS Biotechnology Corporation, priority 2015, dated 2023).

One experiment relates to popliteal LN. Briefly: Homing of CFSE labeled adoptively transferred spleen cells with or without pertussis toxin. The experiment is classed as in vivo, B6 mice. The settings on record: 16 h. From the text: The primary objective of the current experiment was to utilize 5 mice to perform the study described in Example 7 and to visualize the homing of CFSE labeled adoptively transferred cells. The study included a population of cells that had been treated in vitro with pertussis toxin to inactivate chemokine receptors. Pertussis toxin and untreated cells were labeled with two different concentrations of CFSE so that they could be distinguished by flow cytometry. The lymphocytes should be induced to home to lymph nodes.
Spleen cells were prepared from a single B6 mouse and divided in half. Half of the cells were treated with Pertussis toxin 100 ng/ml for 1 hour at 37° C. and washed. The two cell populations were then labeled with CFSE at two different concentrations so they could be distinguished by flow cytometry, and mixed together. The mix (10^7 cells) was injected i.v. into the tail vein of 5 B6 mice. The mice were then anesthetized and injected in the footpad with either sucrose (right footpad) or R-DOTAP (left footpad, 50 μl, 600 nmoles).
After 16 h, the mice were sacrificed and the popliteal LN and spleens harvested. The total cells recovered from left and right nodes from each mouse were counted.

Experiment [1] relates to mouse bone marrow derived dendritic cells (BMDCs). Briefly: Alexa Fluor 647-OVA uptake by BMDCs, flow cytometry. The class given is cell-based. The settings on record: 50 μM cationic lipid, 20 μg/ml Alexa Fluor 647-OVA, 37° C., 10-60 minutes, versus 280 mM sucrose diluent. The method, then:
In order to determine the effect of cationic lipids on the uptake of protein antigen, mouse bone marrow derived dendritic cells (BMDCs) were pulsed with Alexa Fluor®647-OVA conjugate and quantified ovalbumin uptake by BMDCs using flow cytometry. Briefly, 2×10^6 cells/ml BMDCs were incubated at 37° C. for 10-60 minutes in serum free RPMI 1640 cell culture media containing 20 μg/ml ovalbumin (Ovalbumin Alexa Fluor® 647 conjugate; life technologies, cat #034784) and 50 μM cationic lipid (RDOTAP) or 280 mM sucrose diluent. Cells were washed after pulsing to remove non-cell associated ovalbumin and fixed with 1% formaldehyde for flow cytometer analysis. The ovalbumin uptake was quantified using BD LSR II flow cytometer.
A general note: In flow cytometry, cells or beads pass a laser one at a time.

The subject of the next experiment is TC1 epithelial cells. The experiment in a line: DQ-OVA uptake and processing by epithelial cell line. The class given is cell-based, mouse. The conditions noted are these: identical conditions as the BMDC. The method, then: This uptake and processing was inhibited at 4° C. confirming that active cytoskeletal rearrangements are required for this type of uptake. […] The effect of R-DOTAP was concentration dependent with 50 uM showing the greatest effect. To determine if the R-DOTAP enhancement of protein uptake is cell dependent, a mouse epithelial cell line was incubated with DQ-OVA under identical conditions as the BMDC. […] Further, they indicate that this enhancement is selective for dendritic cells and not other, non-antigen presenting cell types.

Another experiment relates to TC-1 tumors. Briefly: Established TC-1 tumor model: tumor microenvironment, tumor volume, ELISPOT. The experiment is classed as in vivo, C57 mice. The settings on record: Day 19 flow cytometry. As for the experimental part:
C57 mice were divided into the following groups of 8 mice per group: R-DOTAP+HPV16 E7 peptide KF18 ([…]) (SEQ ID NO: 4) , GM-CSF+HPV16 E7 peptide KF18, R-DOTAP, GM-C SF, HPV16 E7 peptide KF18, untreated. 1×10^5 TC-1 tumor cells were injected into the flank of the mice on day 0. The various formulations were administered on Days 12 and 19 after tumor implantation. On day 19 4-5 mice per group were sacrificed and a number of evaluations performed to evaluate the immunology of the tumor microenvironment.
RF9 specific dextramer staining and flow cytometry were utilized to quantify the number of HPV-specific CD8+ T-cells that had infiltrated into the tumor micro-environment. The study quantified the number of CD8+ T cells specific to the mouse epitope RF9. These CD8+ T cells were measured as a percentage of all immune cells (CD45, CD3 and CD8) present in the tumor. Antigen specific T cells infiltrating into the tumor were measured using RF9 specific dextramers by flow cytometry. […] Data represents mean±SEM of 4-5 mice in each group.
On Day 19 flow cytometry was used to study the immuno-suppressive tumor microenvironment, specifically the regulatory T cell population. T regulatory cells (CD45+CD3+CD4+CD25+Foxp3+) cells infiltrated into tumors on day 14 and day 19.
Of critical importance to the clinical efficacy of any immunotherapy is the ratio of immune suppressive cells to tumor targeting CD8+ T cells within the tumor microenvironment. A lower ratio of immune suppressor cells to CD8+ T cells promotes improved prognosis for anti-tumor benefit. […] Cationic lipids appear to promote the preferential expansion of the right phenotype of effector T-cells in preference to Tregs.
The various formulations were evaluated for their impact on the established TC-1 tumors in the same study. […] Tumor volumes were measured using calipers. The naïve mice group are tumor bearing mice that remained untreated. The HPV16 E7 peptide used in the vaccine is KF18. […]
In this study, IFN-γ ELISPOT studies were also performed to quantify and understand the “quality” of tumor-specific T-cell generated. […]

Consider `CCCCCCCC/C=C\CCCCCCCC(=O)OCC(C[N+](C)(C)C)OC(=O)CCCCCCC/C=C\CCCCCCCC` (centres unmarked) [R-DOTAP, 1,2-dioleoyl-3-trimethylammonium propane], for which, in the experiment with popliteal LN (R-DOTAP footpad 50 μl, 600 nmoles, untreated cells), the “infiltration of transferred CFSE labeled lymphocytes into lymph node” value is reported as “transferred CFSE labeled lymphocytes also infiltrated the lymph node upon R-DOTAP vaccination”. The “infiltration of pertussis toxin treated CFSE labeled cells into lymph node” value in the experiment on popliteal LN (cells treated with Pertussis toxin 100 ng/ml) is “this did not occur with the pertussis treated cells”. For the same compound, the “ovalbumin (protein) uptake by BMDC, fluorescence intensity” value in experiment [1] is recorded as “significantly increased the protein uptake by BMDC at all time points measured”. Moreover, in the experiment on TC1 epithelial cells, the “DQ-OVA uptake and processing in TC1 epithelial cells” value was “only observed in DC and not in TC1 epithelial cells”. In the experiment on TC-1 tumors, the “ability to reduce the population of Tregs in tumors” value was “statistical significance was not achieved”.
